“Also recorded” adds a separate entry of the source. One block for each molecule: values may come before it.
What was measured:
AKR1B1 = details: cited from earlier work
human recombinant AKR1B1 [1] = target: T1, human recombinant AKR1B1 (Homo sapiens, UniProt P15121); assay: Inhibition kinetic analysis of AKR1B1-dependent reduction of L-idose, HNE and GSHNE; assay type: biochemical; details: for Km: in the absence of inhibitors, read-out: KM of the substrate; for Km / kcat (k+2) of the substrate: at least 20 independent experiments; for kcat (k+2) of the substrate: in the absence of the inhibitor; for k+4: kinetic constant of ternary complex EIS to products
T1 construct: made in house
Description: (§1) The AKR1B1 activity was determined at 37 °C, as previously described, monitoring the decrease in absorbance at 340 nm linked to NADPH oxidation (ε340 = 6.22 mM^−1·cm^−1) using a Biochrom Libra S60 spectrophotometer. The standard assay mixture (0.7 mL) contained 0.25 M sodium phosphate buffer pH 6.8, 0.18 mM NADPH, 0.4 M ammonium sulfate, 0.5 mM EDTA, and 4.7 mM GAL. One unit of enzyme activity is the amount of enzyme that catalyzes the conversion of 1 µmol of substrate/min in the above assay conditions.
(§2) The human recombinant AKR1B1 was expressed and purified to electrophoretic homogeneity, as previously described. […] The purified enzyme was stored at −80 °C in a 10 mM sodium phosphate buffer pH 7.0 containing 2 mM DTT and 30% (w/v) glycerol. Before use, AKR1B1 was extensively dialyzed against 10 mM sodium phosphate buffer pH 7.0.
The kinetic parameters ^appkcat and ^appKM were evaluated by non-linear regression analysis of rate measurements vs. substrate concentration according to Michaelis-Menten equation. The analysis was performed through GraphPad Prism 7.04 software by a non-linear “Robust Regression” analysis in which each point is individually weighted through iterative weighing of the smallest squares. The same approach was adopted to analyze the dependence of ^appkcat, ^appKM, and ^appKM/^appkcat from the concentration of the inhibitors [I], making use of previously derived equations [27] (see text).
The hyperbolic kinetic equation for an incomplete mixed type of inhibition analyzed with both branches of product formation at the steady state and with the inhibitor binding at equilibrium, was defined using the apparent kinetic parameters ^appKM and ^appkcat (Equations (1)–(3), see ref [27] for further details). (1) kappcat=Ki*k+2+k+4[I]/Ki*+[I] (2) appKM=KMKi*+(Ki*/KiKM+k+4/k+1)[I]+k+4/Kik+1[I]^2/Ki*+[I] (3) appKM/appkcat= KMKi*+(Ki*/KiKM+k+4/k+1)[I]+k+4/Kik+1[I]^2/Ki*k+2+k+4[I]
Thus, ^appkcat and ^appKM values emerging from non-linear regression analysis of primary data (Figure 3) were analyzed through non-linear regression using Equations (1) and (2), respectively. […] The above starting values of kcat and KM derived from at least 20 independent experiments in which kinetic parameters were measured in the absence of inhibitors. […] The k+4 values are reported in Table 1 as the average of values emerging from ^appKM/^appkcat versus [I] (Equation (3) or Equation (4)) and 1/^appkcat versus [I] (Equation (1)) plots.

human AKR1B1 [2] = test system: human AKR1B1; set-up: method as in PMID 32640594; details: in the absence of GCG; cited from earlier work
human recombinant AKR1B1 [3] = target: T1, human recombinant AKR1B1; assay: AKR1B1 activity inhibition, decrease in absorbance at 340 nm linked to NADPH oxidation; assay type: biochemical; details: for remaining activity at 800 µM: in the presence of 0.8 mM compound, read-out: residual activity; for IC50: 10 mU AKR1B1, 37 °C, pH 6.8, 95% CLs in text
Description: as §1
IC50 values were determined by non-linear regression analysis using GraphPad Prism version 7.04 (GraphPad Software, San Diego, CA, USA). Values were obtained from at least six different inhibitors concentrations (each assayed at least in triplicate) and are reported with their 95% Confidence Limits (CLs). […] The final concentration of ethanol in the assay was never higher than 1%. […] The percentage of inhibition was calculated referring to an assay performed using the same solvent concentration in the absence of inhibitors.
as §2

human AKR1B1 [4] = assay: Docking, MD simulations and MM-PBSA binding free energy evaluations
Description: The X-ray structure of human AKR1B1 in complex with D-glyceraldehyde and the NADP cofactor (PDB code 3V36), as well as the co-crystal structure of human AKR1B1 in complex with a nitrofuryl-oxadiazol inhibitor (PDB code 2IKH), were downloaded from the Protein Data Bank. Molecular docking calculations were performed with GOLD 5.1 (CCDC Software Ltd., Cambridge, UK) with the Piecewise Linear Potential (PLP) fitness function; both the two X-ray structures and the previously predicted protein–substrate complexes (i.e., AKR1B1-L-idose, AKR1B1-HNE, and AKR1B1-GSHNE) were employed as the protein. […] When protein–substrate complexes were used as the receptor, the ten top-scored clusters of solutions in which the ligand formed at least one H-bond with the substrate were selected as the best clusters of solutions, which were considered for further analyses.
Molecular dynamics (MD) simulations were performed with AMBER 20 [32] using the ff14SB force field. General Amber force field (GAFF) parameters were used for the ligands, the substrates, and the cofactor, whose partial charges were calculated with the AM1-BCC method as implemented in the Antechamber suite of AMBER 20 (University of California, San Francisco, CA, USA). […] Each analyzed complex was placed in a rectangular parallelepiped water box, using the TIP3P explicit solvent model for water, and solvated with a 15 Å water cap. […]

[5] = GSHNE reduction, calculated using k+2 109 ± 8 min^−1
[6] = HNE reduction, calculated using k+2 78 ± 4 min^−1
[7] = L-idose reduction, calculated using k+2 195 ± 6 min^−1

Molecule: C[C@@H]1O[C@@H](O[C@H]2[C@H](O[C@H]3[C@H](O[C@H]4CC[C@@]5(C)[C@@H](CC[C@]6(C)[C@@H]5CC=C5[C@@H]7CC(C)(C)C[C@@H](O)[C@]7(C)CC[C@]56C)[C@@]4(C)CO)O[C@H](C(=O)O)[C@@H](O)[C@@H]3O)O[C@H](CO)[C@H](O)[C@@H]2O)[C@H](O)[C@H](O)[C@H]1O [soyasaponin Bb]
- inhibitory action on AKR1B1 (in words) (AKR1B1): acting as ARDI

Molecule: O=C(O)c1cc(O)c(O)c(O)c1 [GA, gallic acid]
- inhibitory action on AKR1B1 (in words) (AKR1B1): act as ARDIs, even though not complete

Molecule: Oc1cc(O)c2c(c1)O[C@H](c1cc(O)c(O)c(O)c1)[C@H](O)C2 [EGC, epigallocatechin]
- inhibitory action on AKR1B1 (in words) (AKR1B1): inhibits AKR1B1 irrespective of the used substrate

Molecule: O=C(O[C@@H]1Cc2c(O)cc(O)cc2O[C@@H]1c1cc(O)c(O)c(O)c1)c1cc(O)c(O)c(O)c1 [EGCG, epigallocatechin gallate]
- inhibitory action on AKR1B1 (in words) (AKR1B1): preserved only HNE reduction; also recorded: act as ARDIs, even though not complete

- Km (human recombinant AKR1B1 [1]): 120 ± 16 µM
- kcat (k+2) of the substrate (human recombinant AKR1B1 [1]): 1.82 ± 0.13 s⁻¹
Molecule: CCCCCC(O)C(CC=O)SC[C@H](NC(=O)CC[C@H](N)C(=O)O)C(=O)NCC(=O)O (some centres unmarked) [GSHNE, 3-glutathionyl-4-hydroxynonanal adduct]
- binding affinity estimated for the substrate bound to AKR1B1 (human AKR1B1 [2]): -30.3 kcal/mol

- remaining activity at 800 µM (human recombinant AKR1B1 [3]): ~70%
Molecule: Oc1cc(O)c2c(c1)O[C@H](c1ccc(O)c(O)c1)[C@H](O)C2 [EC, epicatechin]

Molecule: Oc1cc(O)c2c(c1)O[C@H](c1cc(O)c(O)c(O)c1)[C@@H](O)C2 [GC, gallocatechin]
- remaining activity at 800 µM (human recombinant AKR1B1 [3]): ~70%

Molecule: catechin gallate [CG]
- inhibition type (human recombinant AKR1B1 [1]; GSHNE reduction): uncompetitive inhibition
- k+4/k+2 (%) (human recombinant AKR1B1 [1]; [5]): 3.8 ± 0.8%
- k+4 (human recombinant AKR1B1 [1]; GSHNE reduction): 4.1 ± 0.8 min⁻¹
- k+4/k+2 (%) (human recombinant AKR1B1 [1]; [6]): approximately 6%
- k+4 (human recombinant AKR1B1 [1]; HNE reduction): 4.7 ± 0.7 min⁻¹
- inhibition type (human recombinant AKR1B1 [1]; L-idose reduction): mixed inhibition type
- k+4/k+2 (%) (human recombinant AKR1B1 [1]; [7]): 0.7 ± 0.3%
- k+4 (human recombinant AKR1B1 [1]; L-idose reduction): 1.4 ± 0.6 min⁻¹

Molecule: O=C[C@H](O)[C@@H](O)[C@H](O)[C@@H](O)CO [L-idose]
- Km (human recombinant AKR1B1 [1]): 4260 ± 300 µM
- kcat (k+2) of the substrate (human recombinant AKR1B1 [1]): 3.25 ± 0.1 s⁻¹
- binding affinity estimated for the substrate bound to AKR1B1 (human AKR1B1 [2]): -17.4 kcal/mol
- increase in the binding affinity of the substrate for the complex (human AKR1B1 [4]; due to the presence of GCG): 32%
- lowering of substrate binding free energy with GCG versus without (human AKR1B1 [4]; presence versus absence of GCG): 5.5 kcal/mol

Molecule: O=C(O[C@@H]1Cc2c(O)cc(O)cc2O[C@@H]1c1ccc(O)c(O)c1)c1cc(O)c(O)c(O)c1 [ECG, epicatechin gallate]
- Ki/Ki* (human recombinant AKR1B1 [1]; GSHNE reduction): approximately 2
- inhibition type (human recombinant AKR1B1 [1]; GSHNE reduction): mixed inhibition type
- k+4/k+2 (%) (human recombinant AKR1B1 [1]; [5]): 14.3 ± 3.9%
- k+4 (human recombinant AKR1B1 [1]; GSHNE reduction): 15.6 ± 4.3 min⁻¹
- k+4/k+2 (%) (human recombinant AKR1B1 [1]; [6]): 8.6 ± 0.4%
- k+4 (human recombinant AKR1B1 [1]; HNE reduction): 6.7 ± 2.7 min⁻¹
- Ki (human recombinant AKR1B1 [1]; Ki*, GSHNE reduction, apparent dissociation constant of ternary complex EIS): 46 ± 11 µM
- Ki (human recombinant AKR1B1 [1]; Ki*, HNE reduction, apparent dissociation constant of ternary complex EIS): 54 ± 9 µM
- Ki (human recombinant AKR1B1 [1]; Ki*, L-idose reduction, apparent dissociation constant of ternary complex EIS): 46 ± 5 µM
- Ki (human recombinant AKR1B1 [1]; Ki, GSHNE reduction, dissociation constant of enzyme-inhibitor complex): 91 ± 10 µM
- Ki (human recombinant AKR1B1 [1]; Ki, HNE reduction, dissociation constant of enzyme-inhibitor complex): > 10000 µM
- Ki (human recombinant AKR1B1 [1]; Ki, L-idose reduction, dissociation constant of enzyme-inhibitor complex): 116 ± 8 µM
- inhibition type (human recombinant AKR1B1 [1]; L-idose reduction): mixed inhibition type
- k+4/k+2 (%) (human recombinant AKR1B1 [1]; [7]): 2.7 ± 1.7%
- k+4 (human recombinant AKR1B1 [1]; L-idose reduction): 5.2 ± 3.2 min⁻¹
- IC50 (human recombinant AKR1B1 [3]; IC50 for GSHNE reduction, […] GSHNE as substrate): 143 µM
- IC50 (human recombinant AKR1B1 [3]; IC50 for HNE reduction, 0.03 mM HNE as substrate): 257 µM
- IC50 (human recombinant AKR1B1 [3]; IC50 for the reduction of L-idose, 8 mM L-idose as substrate): 67 µM

- inhibition type (human recombinant AKR1B1 [1]; GSHNE reduction): uncompetitive inhibition
- k+4 (human recombinant AKR1B1 [1]; GSHNE reduction): 6.0 ± 1.0 min⁻¹
- k+4/k+2 (%) (human recombinant AKR1B1 [1]; [6]): 12.2 ± 1.1%
- k+4 (human recombinant AKR1B1 [1]; HNE reduction): 9.5 ± 0.9 min⁻¹
- inhibition type (human recombinant AKR1B1 [1]; L-idose reduction): mixed inhibition type
- k+4/k+2 (%) (human recombinant AKR1B1 [1]; [7]): 2.9 ± 0.25%
- k+4 (human recombinant AKR1B1 [1]; L-idose reduction): 5.6 ± 0.5 min⁻¹
Molecule: O=C(O[C@@H]1Cc2c(O)cc(O)cc2O[C@H]1c1cc(O)c(O)c(O)c1)c1cc(O)c(O)c(O)c1 [GCG, gallocatechin gallate]

- Km (human recombinant AKR1B1 [1]): 51 ± 5 µM
- kcat (k+2) of the substrate (human recombinant AKR1B1 [1]): 1.3 ± 0.067 s⁻¹
Molecule: CCCCCC(O)/C=C/C=O (centres unmarked) [HNE, 4-hydroxynonenal]
- binding affinity estimated for the substrate bound to AKR1B1 (human AKR1B1 [2]): -18.6 kcal/mol

Reference: publication PMC9495972, “Dissecting the Activity of Catechins as Incomplete Aldose Reductase Differential Inhibitors through Kinetic and Computational Approaches” (Biology, 2022)
